According to US5688773A, “Method of selectively destroying neoplastic cells” (priority 1994, dated 1997):
pIC50: −log10 of the molar value.

How the values were obtained:
C6VIKWT tumors = experiment: Ganciclovir sensitivity of subcutaneous tumors in vivo; design: species or system nude mice
Procedure: Ganciclovir therapy was begun when tumor size reached 1 cm in diameter as measured by calipers, by intraperitoneal injections up to 25 mg/kg daily for 14 days. […] Tumor volumes were measured biweekly during treatment over a 24 day period, and were expressed as a percentage compared to the volume at the time treatment was begun.

C6VIK-WT cells = experiment: GCV killing in culture; format: cell-based; settings: Rattus norvegicus, read-out: GCV concentration at which 50% of cells were killed
Description: (§1) Retroviral vectors can be used to transfer genes into the genome of dividing cells. In order to increase the efficiency of gene delivery and killing effect of ganciclovir, a new packaging line (C6VIK-WT) was developed by infecting C6VIK cells with an ecotropic wild-type retrovirus (MoMLV). See Mann et al., Cell 33:153-159 (1983); Price et al., Proc. Natl. Acad. Sci. USA 84:156-160 (1987); and Cepko, C., in Neuromethods, vol. 16, Molecular Neurobiological Techniques, Boulton et al., eds., The Humana Press, Clifton, N.J. (1989), pp. 177-219. Because tumor cells can migrate deep into brain parenchyme, they should be able to deliver the vector to tumor cells away from the tumor mass. In culture, 50% of C6VIK-WT cells were killed at 0.024 μM GCV, while it took 7.3 μM GCV to kill 50% of C6VIK cells. […] When C6VIK and C6VIK-WT were cultured with C6BAG cells (labelled with the lacZ gene and thus detectable by beta-galactosidase histochemistry), following GCV treatment substantially more C6BAG cells were killed when co-cultured with C6VIK-WT than with C6VIK cells. Presumably C6VIK-WT cells produce both wild-type retrovirus and retrovirus vectors containing the HSV-TK gene (neither of which are produced by C6VIK cells) and death of C6BAG cells might be mediated by retrovirus infection and/or self-generated GCV toxic products.

C6VIK cells = experiment: GCV killing in culture; format: cell-based; settings: Rattus norvegicus, read-out: GCV concentration at which 50% of cells were killed
Description: as §1

[1] = tested on: C6BU1 (HSV-TK negative) cells; experiment: Ganciclovir sensitivity, cell proliferation assay; format: cell-based, rat; settings: even at 1000 nM ganciclovir
Procedure: (§2) Ganciclovir Sensitivity Assays in Culture: To measure the sensitivity of isolated cells, cells were plated in 24-well plates at a density of 10^4 cells per well. The next day, medium was replaced with medium containing ganciclovir (Cytovene, Burroughs Wellcome) at varying concentrations (0-1 μM) in quadruplicate. Four days later, cells were harvested using trypsin and counted using a cell counter (Coulter Electronics Ltd., Luton, United Kingdom). Cell growth is expressed as the percentage of cells compared to the number of cells without treatment (100%).

C6BBAG cells = experiment: Ganciclovir sensitivity, cell proliferation assay; format: cell-based, rat; settings: even at 1000 nM ganciclovir
Procedure: as §2

C6BWT cells = experiment: Ganciclovir sensitivity, cell proliferation assay; format: cell-based, rat; settings: even at 1000 nM ganciclovir
Procedure: as §2

C6BAGWT cells = experiment: Ganciclovir sensitivity, cell proliferation assay; format: cell-based, rat; settings: even at 1000 nM ganciclovir
Procedure: as §2

C6BAG cells = experiment: Ganciclovir sensitivity, cell proliferation assay; format: cell-based, rat; settings: even at 1000 nM ganciclovir
Procedure: as §2

[2] = tested on: C6BAG cells co-cultured with C6VIKWT cells; experiment: Delayed co-culture, ganciclovir sensitivity of recipient colonies; format: cell-based, rat
Procedure: Donor C6VIK or C6VIKWT cells were then added to the cultures at a ratio of 1:2 (5×10^4 recipient cells: 10^5 donor cells). Control cultures consisted of C6BAG or C6BBAG cells alone, or C6BA6 or C6BBAG cells co-plated with "donor" C6BU1 or C6BWT cells, after delay, as above. After 10 days, ganciclovir was added at varying concentrations (0-300 μM) and cells were incubated for another 9-12 days with the drug. Cells were then fixed with 0.5% glutaraldehyde and stained histochemically for beta-galactosidase activity, as described (Price et al., Proc. Natl. Acad. Sci. USA 84:1141-1145 (1987)), and colonies were counted.

parental C6 cells = settings: subcutaneous, nude mice; cited from earlier work
9L-ZP cells = experiment: Drug sensitivity of cultured 9L cells with or without metyrapone; settings: Rattus norvegicus, 120 h
[3] = tested on: parental 9L cells co-cultured with 9L-ZP cells; experiment: Co-culture experiments with culture inserts; format: cell-based, rat; settings: 1 mM cyclophosphamide, 5 days, no cell contact
Procedure: Co-culture Experiments: Parental 9L cells were plated in the bottom wells of culture plates (Falcon 3502), and cytochrome P450 2B1-negative or cytochrome P450 2B1-positive cells were plated into 25 mm cell culture inserts (0.45 μm pore size, Falcon 3090). Culture media were removed 18-24 hours later by aspiration. Culture medium without drug (1.0 mL) was added to the bottom well, and 1.0 mL medium containing drug was added to the upper cell culture insert. Cell numbers were determined 5 days later, as described above.

C6-P450 cells = experiment: Trypsinization and replating assay; format: cell-based, rat; settings: for Cell number: replated, counted nine days later
Procedure: (§3) Trypsinization and replating assay: To determine the temporal kinetics of CPA-mediated cytotoxicity, 2×10^6 cells were plated onto each 10 cm dish. Twenty-four hours later, 0.5 mM CPA was added and cells were incubated for the times indicated in each figure. Cells were then trypsinized and replated at a density of 2×10^5 cells/10 cm dish. Nine days later, cell numbers were evaluated by Coulter counting.

C6 cells [4] = experiment: Trypsinization and replating assay; format: cell-based, rat; settings: for Cell number: replated, counted nine days later
Procedure: as §3

C6 cells [5] = experiment: Cell proliferation assay; format: cell-based, rat; settings: 0.5 mM, four days
Procedure: Cell proliferation assays: For cell proliferation assays, cells (2×10^5 per dish, unless otherwise noted) were plated onto 10 cm dishes. […] Incubations were continued for four days and cell numbers were assayed using a Coulter counter (Coulter Electronics Inc.), after harvesting in trypsinEDTA.

[6] = Table V panel B, survivors of panel A replated, nine days

Nc1nc(O)c2ncn(COC(CO)CO)c2n1 [ganciclovir]
Tumor growth (C6VIKWT tumors; ganciclovir for 14 days from tumor size 1 cm): inhibited subsequent growth completely
Tumor regression (C6VIKWT tumors; subcutaneous inoculation, GCV treatment): regression of tumors in most nude mice
pIC50 (C6VIK-WT cells): 7.62
pIC50 (C6VIK cells): 5.14
Inhibition of growth [1]: No substantial inhibition of growth
Inhibition of growth (C6BBAG cells): No substantial inhibition of growth
Inhibition of growth (C6BWT cells): No substantial inhibition of growth
Inhibition of growth (C6BAGWT cells): No substantial inhibition of growth
Inhibition of growth (C6BAG cells): No substantial inhibition of growth
pIC50 ([2]; Rattus norvegicus, ratio 1:2, read-out: ganciclovir concentration at which 50% of cells grew): 5.52
Survival of beta-galactosidase-positive recipient colonies ([2]; ratio 1:2): almost complete ablation of the recipient cells
Tumor growth (parental C6 cells): had no effect on tumor growth

O=P1(N(CCCl)CCCl)NCCCO1 (stereo not shown) [cyclophosphamide]
cytotoxicity at 1000 µM (9L-ZP cells): > 90%
Killing of both cell populations [3]: killed
pulse of CPA sufficient to completely inhibit the growth of replated cells (C6-P450 cells; 0.5 mM CPA): 3 h
Cell number (C6-P450 cells; 0.5 mM CPA for 0.5 h): 12 ± 1 ×10^6
Cell number (C6-P450 cells; 0.5 mM CPA for 1.5 h): 24.1 ± 0.6 ×10^6
Cell number (C6-P450 cells; 0.5 mM CPA for 3 h): 0.2 ×10^6
Cell number (C6-P450 cells; 0.5 mM CPA for 6 h): 0.1 ×10^6
Cell number (C6-P450 cells; 0.5 mM CPA for 10 h): 0.1 ×10^6
Cell number (C6-P450 cells; 0.5 mM CPA for 24 h): 0.1 ×10^6
Cell number (C6-P450 cells; 0.5 mM CPA for 32 h): 0 ×10^6
Cell number (C6-P450 cells; 0.5 mM CPA for 48 h): 0.1 ×10^6
Cell number (C6-P450 cells; 0.5 mM CPA for 72 h): 0 ×10^6
Cell number (C6-P450 cells; 0.5 mM CPA for 96 h): 0 ×10^6
Proliferation of treated cells after replating (C6-P450 cells; 0.5 mM, trypsinization and replating): completely inhibited
Trypsinization and replating assay, cell count (C6-P450 cells; [6]): 0.11±0.01
Cell number (C6 cells [4]; 0.5 mM CPA for 0.5 h): 11.6 ± 0.4 ×10^6
Cell number (C6 cells [4]; 0.5 mM CPA for 1.5 h): 21.7 ± 0.6 ×10^6
Cell number (C6 cells [4]; 0.5 mM CPA for 3 h): 13.1 ± 1.6 ×10^6
Cell number (C6 cells [4]; 0.5 mM CPA for 6 h): 12.9 ± 0.7 ×10^6
Cell number (C6 cells [4]; 0.5 mM CPA for 10 h): 20.4 ± 0.6 ×10^6
Cell number (C6 cells [4]; 0.5 mM CPA for 24 h): 17 ± 0.7 ×10^6
Cell number (C6 cells [4]; 0.5 mM CPA for 32 h): 15.4 ± 0.5 ×10^6
Cell number (C6 cells [4]; 0.5 mM CPA for 48 h): 18.3 ± 1 ×10^6
Cell number (C6 cells [4]; 0.5 mM CPA for 72 h): 20.2 ×10^6
Cell number (C6 cells [4]; 0.5 mM CPA for 96 h): 28.8 ± 0.8 ×10^6
Trypsinization and replating assay, cell count (C6 cells [4]; [6]): 21.48±0.38
Effect on cell proliferation (C6 cells [5]): had no effect
Cell proliferation assay, number of cells (C6 cells [5]; Table V panel A): 21.10±1.37 ×10^6
